Assay results published in ChEMBL document CHEMBL1201862, “PubChem BioAssay data set” (2004).
The source made the active and inactive calls.

Legend:
[1] = target: T1, Heat shock factor protein 1 (Mus musculus, UniProt P38532); test: inhibition of MG132-induced HSE-luciferase signal, confirmation, cell-based, NIH3T3, luminescence, dose retest (AID 2382); assay type: functional;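 also: NIH3T3 fibroblasts with HSF1-driven luciferase reporter stressed by proteasome inhibitor MG132; luminescence from HSF1-driven luciferase expression after 8 hours of MG132 stress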
T1 sequence (P38532 whole entry): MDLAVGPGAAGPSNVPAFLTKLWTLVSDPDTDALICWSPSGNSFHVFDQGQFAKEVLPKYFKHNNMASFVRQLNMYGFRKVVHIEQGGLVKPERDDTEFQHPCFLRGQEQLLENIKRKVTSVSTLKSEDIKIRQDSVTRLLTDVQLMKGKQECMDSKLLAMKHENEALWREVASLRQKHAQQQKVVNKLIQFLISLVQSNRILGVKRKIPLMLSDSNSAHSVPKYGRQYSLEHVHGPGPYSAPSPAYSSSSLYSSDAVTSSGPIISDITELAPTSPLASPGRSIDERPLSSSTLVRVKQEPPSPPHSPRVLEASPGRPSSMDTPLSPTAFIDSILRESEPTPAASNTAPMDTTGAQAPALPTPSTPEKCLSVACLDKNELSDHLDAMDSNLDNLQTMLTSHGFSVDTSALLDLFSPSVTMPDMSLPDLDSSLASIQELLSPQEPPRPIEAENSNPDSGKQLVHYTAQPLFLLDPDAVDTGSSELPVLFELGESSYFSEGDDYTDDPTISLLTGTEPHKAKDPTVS

[2] = inhibitors of HIV Env-driven cell fusion, dose response, cherry-pick (AID 652057); assay type: functional, cell-based
[3] = ZM109 Env clade C HIV-1 fusion inhibitors, dose response, HeLa effector, CEM target cells, luciferase, cherry-pick (AID 652058); assay type: functional, cell-based
[4] = off-target signal loss in HeLa-CEM21 co-culture – HeLa F-luc CTL cells, cherry-picked, counter-screen for HIV-1 Env fusion inhibitor project, dose response (AID 652040); assay type: functional, cell-based;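 also: potency for signal decrease marking cytotoxic or nonspecific inhibition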
[5] = inhibitors of clade B AD8 Env fusion, dose response, cell-based, cherry-pick (AID 652062); assay type: functional;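 also: luciferase signal from cell-cell fusion driven by HIV-1 clade B AD8 Env; potency is for inhibitors of fusion seen as a drop in luminescence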
[6] = target: T2, Fatty acid synthase (Homo sapiens, UniProt P49327); test: FAS thioesterase domain inhibitors, dose response, biochemical, endpoint fluorescence intensity, uHTS hits (AID 624327); assay type: functional;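 also: fluorescence from hydrolysis of an O-methyl fluorescein acyl ester substrate by the enzyme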
[7] = target: T2, Fatty acid synthase; test: FAS thioesterase domain inhibitors, dose response, biochemical, kinetic fluorescence intensity (AID 624326); assay type: functional;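 also: rate of fluorescence rise from hydrolysis of a fluorogenic O-methyl fluorescein ester substrate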
[8] = target: Voltage-dependent T-type calcium channel subunit alpha-1H (Homo sapiens, UniProt O95180); assay type: functional;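 also: channel activity triggered by adding a high calcium stimulation buffer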
[9] = target: T3, Leucine aminopeptidase (Plasmodium falciparum 3D7, UniProt Q8IL11); test: P. falciparum M17LAP inhibitors, primary screen, biochemical, fluorogenic H-Leu-NHMec substrate, 1536-well (AID 1619); assay type: functional
T3 sequence (Q8IL11 whole entry): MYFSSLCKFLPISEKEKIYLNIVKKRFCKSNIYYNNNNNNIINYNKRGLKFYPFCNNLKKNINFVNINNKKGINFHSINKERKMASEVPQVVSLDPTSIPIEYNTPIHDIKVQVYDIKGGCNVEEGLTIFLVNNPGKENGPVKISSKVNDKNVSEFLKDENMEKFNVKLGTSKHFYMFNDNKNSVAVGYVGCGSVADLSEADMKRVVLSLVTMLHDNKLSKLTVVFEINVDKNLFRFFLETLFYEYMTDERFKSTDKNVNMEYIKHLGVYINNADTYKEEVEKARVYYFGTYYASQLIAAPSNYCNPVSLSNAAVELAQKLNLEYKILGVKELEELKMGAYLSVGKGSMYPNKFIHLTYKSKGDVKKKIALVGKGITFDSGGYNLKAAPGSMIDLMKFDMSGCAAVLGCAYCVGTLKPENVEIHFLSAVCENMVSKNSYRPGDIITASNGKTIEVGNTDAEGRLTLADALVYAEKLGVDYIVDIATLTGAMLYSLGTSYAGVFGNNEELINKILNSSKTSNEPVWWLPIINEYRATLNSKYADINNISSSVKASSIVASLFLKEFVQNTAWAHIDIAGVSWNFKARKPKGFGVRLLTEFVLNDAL

[10] = target: T4, Polyadenylate-binding protein 1 (Homo sapiens, UniProt P11940); test: PABP1 MLLE–PAM2 interaction inhibitors, dose response, miRNA deadenylation inhibitor project, biochemical, fluorescence polarization, Cy5-PAM2 peptide, secondary (AID 602260); assay type: functional; settings: read-out: IC50_Mean
[11] = target: T4, Polyadenylate-binding protein 1; test: PABP1 MLLE–PAM2 binding inhibitor potency, dose response, biochemical, fluorescence polarization, FITC-PAM2 peptide (AID 602259); assay type: functional; settings: read-out: IC50_Mean
[12] = target: T5, RNA-binding protein pos-1 (Caenorhabditis elegans, UniProt G5EF15); test: inhibitors of POS-1/mex-3 RNA binding, dose response, biochemical, fluorescence polarization (AID 1964);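 also: purified POS-1 fused to maltose binding protein made in E. coli; potency of compounds blocking POS-1 binding to fluorescent RNA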
T5 sequence (G5EF15 whole entry): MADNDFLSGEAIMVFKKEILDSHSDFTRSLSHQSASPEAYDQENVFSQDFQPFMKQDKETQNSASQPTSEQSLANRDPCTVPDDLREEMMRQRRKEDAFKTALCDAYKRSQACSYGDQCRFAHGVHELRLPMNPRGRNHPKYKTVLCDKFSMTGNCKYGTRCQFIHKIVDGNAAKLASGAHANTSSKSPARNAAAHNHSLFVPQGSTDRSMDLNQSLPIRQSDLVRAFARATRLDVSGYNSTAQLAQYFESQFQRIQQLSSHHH

[13] = target: T6, Zinc finger protein mex-5 (Caenorhabditis elegans, UniProt Q9XUB2); test: MEX-5/TCR-2 RNA interaction inhibitors, dose response, biochemical, C. elegans, fluorescence polarization (AID 1960)
T6 sequence (Q9XUB2 whole entry): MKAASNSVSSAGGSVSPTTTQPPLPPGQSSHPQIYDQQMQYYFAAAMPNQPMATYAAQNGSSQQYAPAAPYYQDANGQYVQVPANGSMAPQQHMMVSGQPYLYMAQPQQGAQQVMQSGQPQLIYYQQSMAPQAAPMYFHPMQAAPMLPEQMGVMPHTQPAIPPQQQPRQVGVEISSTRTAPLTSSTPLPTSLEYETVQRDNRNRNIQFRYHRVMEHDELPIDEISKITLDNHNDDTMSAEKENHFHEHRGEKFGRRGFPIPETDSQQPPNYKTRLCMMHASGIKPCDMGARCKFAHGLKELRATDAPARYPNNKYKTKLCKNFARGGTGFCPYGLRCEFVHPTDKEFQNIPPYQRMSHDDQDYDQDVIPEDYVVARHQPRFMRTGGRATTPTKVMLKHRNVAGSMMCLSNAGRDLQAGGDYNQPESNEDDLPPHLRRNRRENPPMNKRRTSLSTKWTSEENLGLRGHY

[14] = system: Vero; test: cells; assay type: functional; settings: Chlorocebus sabaeus
[15] = target: Large T antigen (Simian virus 40, UniProt P03070); assay type: functional, Betapolyomavirus macacae;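 also: Confirmatory-stage PubChem screen for compounds that inhibit SV40 T antigen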
[16] = target: Glucose-6-phosphate 1-dehydrogenase (Homo sapiens, UniProt P11413); test: human G6PD enzyme inhibitors, dose response, selectivity assay for P. falciparum G6PD inhibitor project, biochemical, fluorescence (AID 504792); assay type: functional

T2 sequence (P49327 whole entry, the tested form may be a part): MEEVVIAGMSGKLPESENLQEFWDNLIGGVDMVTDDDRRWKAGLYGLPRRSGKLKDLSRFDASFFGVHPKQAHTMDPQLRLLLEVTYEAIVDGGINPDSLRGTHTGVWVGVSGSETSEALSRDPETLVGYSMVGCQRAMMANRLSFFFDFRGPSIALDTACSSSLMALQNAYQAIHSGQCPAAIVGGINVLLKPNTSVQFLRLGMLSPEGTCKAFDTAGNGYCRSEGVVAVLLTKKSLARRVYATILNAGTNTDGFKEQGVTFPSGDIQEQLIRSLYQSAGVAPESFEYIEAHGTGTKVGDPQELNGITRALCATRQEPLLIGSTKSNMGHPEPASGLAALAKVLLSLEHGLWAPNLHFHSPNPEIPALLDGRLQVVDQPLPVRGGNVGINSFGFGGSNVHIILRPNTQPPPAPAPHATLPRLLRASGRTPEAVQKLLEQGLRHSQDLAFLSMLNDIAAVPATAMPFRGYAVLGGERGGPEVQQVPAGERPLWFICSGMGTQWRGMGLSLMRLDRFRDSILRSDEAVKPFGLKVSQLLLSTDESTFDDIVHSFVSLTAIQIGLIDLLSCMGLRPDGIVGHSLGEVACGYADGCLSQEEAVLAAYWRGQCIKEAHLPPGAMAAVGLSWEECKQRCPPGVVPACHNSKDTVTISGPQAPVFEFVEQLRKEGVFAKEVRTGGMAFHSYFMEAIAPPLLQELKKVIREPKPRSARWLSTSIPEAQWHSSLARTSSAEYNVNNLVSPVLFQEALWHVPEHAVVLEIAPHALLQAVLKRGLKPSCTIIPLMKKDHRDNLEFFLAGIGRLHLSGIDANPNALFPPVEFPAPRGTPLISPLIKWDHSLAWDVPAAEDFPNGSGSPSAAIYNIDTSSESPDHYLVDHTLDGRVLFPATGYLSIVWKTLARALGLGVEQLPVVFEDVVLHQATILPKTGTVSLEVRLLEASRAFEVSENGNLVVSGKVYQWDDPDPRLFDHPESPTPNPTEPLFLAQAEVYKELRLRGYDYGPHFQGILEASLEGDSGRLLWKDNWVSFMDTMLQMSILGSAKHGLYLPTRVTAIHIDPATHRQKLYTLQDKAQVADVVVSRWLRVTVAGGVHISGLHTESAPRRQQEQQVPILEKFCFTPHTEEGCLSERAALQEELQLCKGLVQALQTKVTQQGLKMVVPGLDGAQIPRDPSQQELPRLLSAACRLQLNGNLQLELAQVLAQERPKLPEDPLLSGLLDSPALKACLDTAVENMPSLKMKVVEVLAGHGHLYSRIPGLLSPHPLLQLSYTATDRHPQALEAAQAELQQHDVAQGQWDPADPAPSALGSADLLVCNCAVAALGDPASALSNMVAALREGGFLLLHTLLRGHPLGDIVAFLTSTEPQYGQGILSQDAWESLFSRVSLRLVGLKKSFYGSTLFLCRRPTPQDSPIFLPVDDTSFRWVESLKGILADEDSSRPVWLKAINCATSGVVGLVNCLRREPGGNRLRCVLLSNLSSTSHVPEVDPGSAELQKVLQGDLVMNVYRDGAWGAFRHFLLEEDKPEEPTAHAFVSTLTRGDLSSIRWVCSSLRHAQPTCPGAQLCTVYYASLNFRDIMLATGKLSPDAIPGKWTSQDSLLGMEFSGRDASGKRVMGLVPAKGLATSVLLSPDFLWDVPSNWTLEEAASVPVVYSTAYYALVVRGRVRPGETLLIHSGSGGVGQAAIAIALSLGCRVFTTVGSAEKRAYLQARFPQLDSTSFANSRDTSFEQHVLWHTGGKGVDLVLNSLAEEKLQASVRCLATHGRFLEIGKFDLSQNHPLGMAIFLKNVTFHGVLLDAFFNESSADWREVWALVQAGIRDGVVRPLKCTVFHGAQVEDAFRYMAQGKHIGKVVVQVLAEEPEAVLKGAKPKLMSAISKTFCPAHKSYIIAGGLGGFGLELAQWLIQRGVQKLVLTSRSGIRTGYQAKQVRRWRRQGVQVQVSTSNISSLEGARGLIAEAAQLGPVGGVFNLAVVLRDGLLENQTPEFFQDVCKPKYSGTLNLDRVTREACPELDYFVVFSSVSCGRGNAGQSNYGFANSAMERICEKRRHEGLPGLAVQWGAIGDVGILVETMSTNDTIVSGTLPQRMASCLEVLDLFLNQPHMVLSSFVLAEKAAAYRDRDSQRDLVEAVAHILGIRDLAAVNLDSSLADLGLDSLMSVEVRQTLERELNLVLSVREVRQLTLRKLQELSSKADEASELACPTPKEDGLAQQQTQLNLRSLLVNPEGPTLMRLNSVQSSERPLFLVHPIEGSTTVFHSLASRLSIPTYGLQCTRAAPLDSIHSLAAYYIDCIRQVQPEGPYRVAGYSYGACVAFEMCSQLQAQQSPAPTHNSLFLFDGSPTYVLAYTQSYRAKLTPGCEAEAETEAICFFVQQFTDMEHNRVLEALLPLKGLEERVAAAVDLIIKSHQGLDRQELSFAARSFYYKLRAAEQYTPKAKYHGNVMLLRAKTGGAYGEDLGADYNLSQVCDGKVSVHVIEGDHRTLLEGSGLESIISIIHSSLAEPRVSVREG
Voltage-dependent T-type calcium channel subunit alpha-1H, sequence (O95180 whole entry): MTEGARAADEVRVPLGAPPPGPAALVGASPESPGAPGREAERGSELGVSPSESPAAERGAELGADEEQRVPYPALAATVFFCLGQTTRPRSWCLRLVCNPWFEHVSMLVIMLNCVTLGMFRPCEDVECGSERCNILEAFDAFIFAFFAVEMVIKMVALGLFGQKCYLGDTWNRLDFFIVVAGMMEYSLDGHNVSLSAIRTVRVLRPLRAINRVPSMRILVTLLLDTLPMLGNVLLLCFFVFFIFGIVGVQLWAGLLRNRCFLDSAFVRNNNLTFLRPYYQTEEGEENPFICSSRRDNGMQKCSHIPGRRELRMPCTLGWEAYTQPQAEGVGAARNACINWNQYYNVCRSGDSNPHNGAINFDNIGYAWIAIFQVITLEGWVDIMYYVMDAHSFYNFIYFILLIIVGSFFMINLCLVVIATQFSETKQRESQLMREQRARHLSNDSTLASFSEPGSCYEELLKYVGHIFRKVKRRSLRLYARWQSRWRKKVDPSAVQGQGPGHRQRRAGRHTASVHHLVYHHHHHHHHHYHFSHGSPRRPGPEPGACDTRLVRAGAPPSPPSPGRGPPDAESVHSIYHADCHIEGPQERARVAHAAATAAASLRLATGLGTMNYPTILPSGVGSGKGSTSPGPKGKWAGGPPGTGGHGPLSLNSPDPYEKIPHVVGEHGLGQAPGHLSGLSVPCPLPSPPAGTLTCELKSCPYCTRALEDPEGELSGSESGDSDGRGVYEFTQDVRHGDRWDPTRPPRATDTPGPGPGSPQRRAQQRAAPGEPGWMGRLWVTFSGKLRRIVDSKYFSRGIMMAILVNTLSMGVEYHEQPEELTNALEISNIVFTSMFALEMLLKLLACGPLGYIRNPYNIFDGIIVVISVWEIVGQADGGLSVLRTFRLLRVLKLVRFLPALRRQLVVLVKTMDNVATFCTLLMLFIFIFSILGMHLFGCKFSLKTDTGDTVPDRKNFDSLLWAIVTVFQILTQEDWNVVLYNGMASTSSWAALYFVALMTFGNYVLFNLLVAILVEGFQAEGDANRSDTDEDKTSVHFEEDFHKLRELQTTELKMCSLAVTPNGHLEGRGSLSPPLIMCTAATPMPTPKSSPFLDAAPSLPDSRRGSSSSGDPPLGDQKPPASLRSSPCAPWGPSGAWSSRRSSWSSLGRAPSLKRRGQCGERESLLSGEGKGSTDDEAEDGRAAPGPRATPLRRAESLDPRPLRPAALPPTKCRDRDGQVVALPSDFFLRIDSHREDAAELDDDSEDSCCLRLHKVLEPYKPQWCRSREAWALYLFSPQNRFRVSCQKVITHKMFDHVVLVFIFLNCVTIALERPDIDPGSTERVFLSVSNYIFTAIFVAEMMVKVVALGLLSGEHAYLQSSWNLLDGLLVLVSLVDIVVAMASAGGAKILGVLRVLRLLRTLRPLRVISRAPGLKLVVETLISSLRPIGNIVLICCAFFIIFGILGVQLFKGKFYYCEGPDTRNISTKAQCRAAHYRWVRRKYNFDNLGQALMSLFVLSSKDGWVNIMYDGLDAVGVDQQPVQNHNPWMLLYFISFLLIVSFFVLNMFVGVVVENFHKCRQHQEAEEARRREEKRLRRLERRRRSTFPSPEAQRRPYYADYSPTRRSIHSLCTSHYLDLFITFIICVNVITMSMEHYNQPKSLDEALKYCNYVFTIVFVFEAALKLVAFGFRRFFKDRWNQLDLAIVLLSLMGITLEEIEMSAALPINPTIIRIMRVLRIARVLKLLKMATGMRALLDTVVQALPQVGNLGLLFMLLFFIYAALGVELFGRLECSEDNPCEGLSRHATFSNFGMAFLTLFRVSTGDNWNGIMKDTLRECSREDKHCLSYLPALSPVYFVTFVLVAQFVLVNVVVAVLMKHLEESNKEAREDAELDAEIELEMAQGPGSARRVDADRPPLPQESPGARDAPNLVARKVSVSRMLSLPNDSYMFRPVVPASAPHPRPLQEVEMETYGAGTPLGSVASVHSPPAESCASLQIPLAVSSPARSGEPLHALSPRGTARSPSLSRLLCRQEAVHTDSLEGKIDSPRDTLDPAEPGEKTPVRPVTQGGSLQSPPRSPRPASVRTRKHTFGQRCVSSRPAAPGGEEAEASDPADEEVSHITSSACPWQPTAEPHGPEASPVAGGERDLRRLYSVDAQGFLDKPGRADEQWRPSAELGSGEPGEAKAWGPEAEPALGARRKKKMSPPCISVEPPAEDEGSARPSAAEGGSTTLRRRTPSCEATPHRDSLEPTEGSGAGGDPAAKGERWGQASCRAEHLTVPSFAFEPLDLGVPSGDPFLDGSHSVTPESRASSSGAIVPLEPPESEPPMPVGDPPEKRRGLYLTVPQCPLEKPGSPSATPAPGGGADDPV

For CCN(CC)c1ncnc2ccc(Br)cc12, the EC50 [1] was 13.8 µM (active), the AC50 [2] was 3.83 µM (active) and the AC50 [3] was 6 µM (active). The AC50 [4] was 3.74 µM (active) and the AC50 [5] was 6.58 µM (active).

With O=C(NNc1cccc([N+](=O)[O-])c1)/C(=C\c1cccnc1)NC(=O)c1ccccc1 the IC50 [6] was 6.04 µM (active) and the IC50 [7] was 4.39 µM (active).

With CCC(=O)C1=C(NCCc2c(C)[nH]c3ccc(C)cc23)CC(c2ccccc2)CC1=O (stereo unspecified) the EC50 [8] was 798 µM (active).

In the case of NC(=O)c1c(NC(=O)C2CCCO2)sc2c1CCCCC2 (stereo unspecified), the IC50 [9] is reported as 58.7 µM (active), the IC50 [10] is reported as > 66 µM (inactive) and the IC50 [11] is reported as > 66 µM (inactive).

In the case of COc1ccccc1N1CCN(CC(O)COc2ccc3c(c2)CCC3)CC1 (stereo unspecified), the EC50 [8] is reported as 5.92 µM (active).

For CC(=O)Nc1c(O)nc(SCC(=O)Nc2sc3c(c2C#N)CCCCCC3)nc1O, the IC50 [9] was 27.9 µM (active).

For CCOC(=O)CSC(C)C(=O)Nc1nnc(C(C)C)s1 (stereo unspecified), the IC50 [9] was 37.7 µM (active).

In the case of Cc1[nH]c2ccccc2c1Cc1nnc(SCc2ccccc2)o1, the EC50 [8] is reported as 3.55 µM (active).

For Cc1ccc(S(=O)(=O)N2CCN(S(=O)(=O)c3ccc(C)cc3)C2c2ccccc2)cc1, the AC50 [2] was 4.63 µM (active), the AC50 [3] was 4.2 µM (active) and the AC50 [4] was 4.72 µM (active). The AC50 [5] was 1.58 µM (active).

For O=C1NC(=O)/C(=C2\C(=O)Nc3ccc([N+](=O)[O-])cc32)S1, the EC50 [12] was 13.2 µM (active), the EC50 [13] was 21.5 µM (inconclusive) and the IC50 [6] was 13.8 µM (active). The IC50 [7] was 9.24 µM (active).

In the case of COc1cc(/C=C/C(=O)c2ccc(NS(=O)(=O)c3ccc(C)cc3)cc2)ccc1OC(F)F, the CC50 [14] is reported as 22.5 µM (active).

For CCN(C[C@H]1N[C@@](CC)(C(=O)OC)[C@H]2C(=O)N(Cc3ccccc3)C(=O)[C@@H]12)C(=O)Nc1ccc(Cl)cc1, the AC50 [2] was < 0.26 µM (active), the AC50 [3] was < 0.26 µM (active) and the AC50 [4] was 0.367 µM (active). For the same compound, the AC50 [5] was 0.277 µM (active).

In the case of COC(=O)C1=C(O)/C(=C/c2cccc(OC)c2O)N=C1C, the IC50 [15] is reported as 14.8 µM (active).

In the case of COc1ccc(-c2c[nH]nc2N)cc1, the IC50 [9] is reported as 60.8 µM (active).

With COc1cc(NC(C)CCc2ccccc2)cc(OC)c1OC (stereo unspecified) the IC50 [16] was 43.3 µM (inactive).
